Laboratory results from patent publication US10765114B2, “4-amino-6-(pyridyl and 2-substitutedphenyl)-picolinates and 6-amino-2-(pyridyl and 2-substitutedphenyl)-pyrimidine-4-carboxylates and their use as herbicides” (Dow AgroSciences LLC, priority 2013, dated 2020).

What follows are compounds tested on SEBEX: hemp sesbania, Sesbania exaltata (assay: Postemergence Herbicidal Activity in Direct Seeded Rice). Conditions: 35 g ai/ha, postemergence, direct seeded rice.
Type: in vivo
From the text: (§1) Seeds or nutlets of the desired test plant species were planted in a soil matrix prepared by mixing a loam soil (43 percent silt, 19 percent clay, and 38 percent sand, with a pH of about 8.1 and an organic matter content of about 1.5 percent) and river sand in an 80 to 20 ratio. The soil matrix was contained in plastic pots with a surface area of 139.7 cm^2. When required to ensure good germination and healthy plants, a fungicide treatment and/or other chemical or physical treatment was applied. The plants were grown for 10-17 days in a greenhouse with an approximate 14-h photoperiod which was maintained at about 29° C. during the day and 26° C. during the night. Nutrients and water were added on a regular basis and supplemental lighting was provided with overhead metal halide 1000-Watt lamps as necessary. The plants were employed for testing when they reached the second or third true leaf stage.
(§2) A weighed amount, determined by the highest rate to be tested, of each test compound was placed in 25 mL glass vials and dissolved in a volume of 97:3 v/v acetone-DMSO to obtain 12× stock solutions. […] The concentrated stock solutions were added to the spray solutions so that the final acetone and DMSO concentrations were 16.2% and 0.5%, respectively. Spray solutions were diluted to the appropriate final concentrations with the addition of 10 mL of an aqueous mixture of 1.5% (v/v) Agri-dex crop oil concentrate. The final spray solutions contained 1.25% (v/v) Agri-dex crop oil concentrate. Compound requirements are based upon a 12 mL application volume at a rate of 187 L/ha. Formulated compounds were applied to the plant material with an overhead Mandel track sprayer equipped with 8002E nozzles calibrated to deliver 187 L/ha over an application area of 0.503 square meters (m^2) at a spray height of 18 inches (43 cm) above average plant canopy height. Control plants were sprayed in the same manner with the solvent blank.
(§3) The treated plants and control plants were placed in a greenhouse as described above and watered by sub-irrigation to prevent wash-off of the test compounds. After 20-22 days, the condition of the test plants, compared with that of the untreated plants, was determined visually and scored on a scale of 0 to 100 percent where 0 corresponds to no injury and 100 corresponds to complete kill and presented as indicated in Table A.
(§4) By applying the well-accepted probit analysis as described by J. Berkson in Journal of the American Statistical Society, 48, 565 (1953) and by D. Finney in “Probit Analysis” Cambridge University Press (1952), herbicidal injury of a specific compound at various rates can be used to calculate GR20, GR50, GR80 and GR90 values, which are defined as growth reduction factors that correspond to the effective dose of herbicide required to provide plant growth reduction (GR) of 20 percent, 50 percent, 80 percent and 90 percent, respectively. Probit analysis was applied to data collected from multiple dose rates of individual compounds utilizing the procedures explained in the following examples. The analysis of those dose rates is captured in the following tables

SMILES | Visual Growth Reduction (%) 21 Days After Application, SEBEX
COC(=O)c1nc(-c2ccc(Cl)nc2F)c(F)c(N)c1Cl [Compound 45] | A (95-100)

Same assay, conditions: 70 g ai/ha, postemergence, direct seeded rice

SMILES | Visual Growth Reduction (%) 21 Days After Application, SEBEX
COC(=O)c1nc(-c2ccc(Cl)nc2F)c(F)c(N)c1Cl [Compound 45] | A (95-100)

Same assay, conditions: Growth reduction of 50% of plant growth, probit analysis

SMILES | GR50, SEBEX [g ai/ha]
COC(=O)c1nc(-c2ccc(Cl)nc2F)c(F)c(N)c1Cl [Compound 45] | 1

Same assay, conditions: Growth reduction of 80% of plant growth, probit analysis

SMILES | GR80, SEBEX [g ai/ha]
COC(=O)c1nc(-c2ccc(Cl)nc2F)c(F)c(N)c1Cl [Compound 45] | 2

What follows are compounds tested on BRAPP: broadleaf signalgrass, Brachiaria platyphylla in the same assay as above. Conditions: 35 g ai/ha, postemergence, direct seeded rice.
Type: in vivo
From the text: as §1, §2, §3, §4

SMILES | Visual Growth Reduction (%) 21 Days After Application, BRAPP
COC(=O)c1nc(-c2ccc(Cl)nc2F)c(F)c(N)c1Cl [Compound 45] | G (0-29)

Same assay, conditions: 70 g ai/ha, postemergence, direct seeded rice

SMILES | Visual Growth Reduction (%) 21 Days After Application, BRAPP
COC(=O)c1nc(-c2ccc(Cl)nc2F)c(F)c(N)c1Cl [Compound 45] | G (0-29)

Same assay, conditions: Growth reduction of 50% of plant growth, probit analysis

SMILES | GR50, BRAPP [g ai/ha]
COC(=O)c1nc(-c2ccc(Cl)nc2F)c(F)c(N)c1Cl [Compound 45] | >140

Same assay, conditions: Growth reduction of 80% of plant growth, probit analysis

SMILES | GR80, BRAPP [g ai/ha]
COC(=O)c1nc(-c2ccc(Cl)nc2F)c(F)c(N)c1Cl [Compound 45] | >140

What follows are compounds tested on ORYSS: Oryza sativa in the same assay as above. Conditions: 35 g ai/ha, postemergence, direct seeded rice.
Type: in vivo
From the text: as §1, §2, §3, §4

SMILES | Visual Growth Reduction (%) 21 Days After Application, ORYSS
COC(=O)c1nc(-c2ccc(Cl)nc2F)c(F)c(N)c1Cl [Compound 45] | G (0-29)

Same assay, conditions: 70 g ai/ha, postemergence, direct seeded rice

SMILES | Visual Growth Reduction (%) 21 Days After Application, ORYSS
COC(=O)c1nc(-c2ccc(Cl)nc2F)c(F)c(N)c1Cl [Compound 45] | G (0-29)

Same assay, conditions: Growth reduction of 20% of plant growth, probit analysis

SMILES | GR20, ORYSS [g ai/ha]
COC(=O)c1nc(-c2ccc(Cl)nc2F)c(F)c(N)c1Cl [Compound 45] | >140

What follows are compounds tested on CYPSS: sedge including small-flower flatsedge (Cyperus difformis), yellow nutsedge (Cyperus esculentus), rice flatsedge (Cyperus iria) in the same assay as above. Conditions: 35 g ai/ha, postemergence, direct seeded rice.
Type: in vivo
From the text: as §1, §2, §3, §4

SMILES | Visual Growth Reduction (%) 21 Days After Application, CYPSS
COC(=O)c1nc(-c2ccc(Cl)nc2F)c(F)c(N)c1Cl [Compound 45] | B (85-94)

Same assay, conditions: 70 g ai/ha, postemergence, direct seeded rice

SMILES | Visual Growth Reduction (%) 21 Days After Application, CYPSS
COC(=O)c1nc(-c2ccc(Cl)nc2F)c(F)c(N)c1Cl [Compound 45] | A (95-100)

Same assay, conditions: Growth reduction of 50% of plant growth, probit analysis

SMILES | GR50, CYPSS [g ai/ha]
COC(=O)c1nc(-c2ccc(Cl)nc2F)c(F)c(N)c1Cl [Compound 45] | 3

Same assay, conditions: Growth reduction of 80% of plant growth, probit analysis

SMILES | GR80, CYPSS [g ai/ha]
COC(=O)c1nc(-c2ccc(Cl)nc2F)c(F)c(N)c1Cl [Compound 45] | 7

Each compound was assayed on SCPJU: Japanese bulrush, Schoenoplectus juncoides in the same assay as above. Conditions: Growth reduction of 50% of plant growth, probit analysis.
Type: in vivo
From the text: as §1, §2, §3, §4

SMILES | GR50, SCPJU [g ai/ha]
COC(=O)c1nc(-c2ccc(Cl)nc2F)c(F)c(N)c1Cl [Compound 45] | 1

Same assay, conditions: Growth reduction of 80% of plant growth, probit analysis

SMILES | GR80, SCPJU [g ai/ha]
COC(=O)c1nc(-c2ccc(Cl)nc2F)c(F)c(N)c1Cl [Compound 45] | 1

The compounds below were run on ECHSS: including barnyardgrass, (Echinochloa crus-galli), junglerice, (Echinochloa colonum) in the same assay as above. Conditions: 35 g ai/ha, postemergence, direct seeded rice.
Type: in vivo
From the text: as §1, §2, §3, §4

SMILES | Visual Growth Reduction (%) 21 Days After Application, ECHSS
COC(=O)c1nc(-c2ccc(Cl)nc2F)c(F)c(N)c1Cl [Compound 45] | F (30-44)

Same assay, conditions: 70 g ai/ha, postemergence, direct seeded rice

SMILES | Visual Growth Reduction (%) 21 Days After Application, ECHSS
COC(=O)c1nc(-c2ccc(Cl)nc2F)c(F)c(N)c1Cl [Compound 45] | B (85-94)

Same assay, conditions: Growth reduction of 50% of plant growth, probit analysis

SMILES | GR50, ECHSS [g ai/ha]
COC(=O)c1nc(-c2ccc(Cl)nc2F)c(F)c(N)c1Cl [Compound 45] | 16

Same assay, conditions: Growth reduction of 80% of plant growth, probit analysis

SMILES | GR80, ECHSS [g ai/ha]
COC(=O)c1nc(-c2ccc(Cl)nc2F)c(F)c(N)c1Cl [Compound 45] | >140

The compounds below were run on LEFSS: sprangletop including Chinese sprangletop (Leptochloa chinensis), green sprangletop (Leptochloa dubia) in the same assay as above. Conditions: 35 g ai/ha, postemergence, direct seeded rice.
Type: in vivo
From the text: as §1, §2, §3, §4

SMILES | Visual Growth Reduction (%) 21 Days After Application, LEFSS
COC(=O)c1nc(-c2ccc(Cl)nc2F)c(F)c(N)c1Cl [Compound 45] | G (0-29)

Same assay, conditions: 70 g ai/ha, postemergence, direct seeded rice

SMILES | Visual Growth Reduction (%) 21 Days After Application, LEFSS
COC(=O)c1nc(-c2ccc(Cl)nc2F)c(F)c(N)c1Cl [Compound 45] | D (60-74)

Same assay, conditions: Growth reduction of 50% of plant growth, probit analysis

SMILES | GR50, LEFSS [g ai/ha]
COC(=O)c1nc(-c2ccc(Cl)nc2F)c(F)c(N)c1Cl [Compound 45] | >140

Same assay, conditions: Growth reduction of 80% of plant growth, probit analysis

SMILES | GR80, LEFSS [g ai/ha]
COC(=O)c1nc(-c2ccc(Cl)nc2F)c(F)c(N)c1Cl [Compound 45] | >140
